# In patent US20070117743A1, “New antitumoral compounds” (priority 2003, published 2007):
# Where a SMILES comes first, the peptide text is derived from it. Bridges are numbered along the chain shown (N, C = ends). [ ]: non-standard residue; d: D form. The star is where a group is joined. d(aIle) = CC[C@H](C)[C@@H](N)C(=O)O; d(aThr) = C[C@@H](O)[C@@H](N)C(=O)O; Hexanoyl(5-Me) = CC(C)CCCC(=O)*; Orn = NCCC[C@H](N)C(=O)O; Dhb = C/C=C(\N)C(=O)O
# Assays:
# Format in all cases: cell-based, human
# K-562 = assay: SRB colorimetric assay of cell growth and viability, K-562; settings: 48 hours exposure; for CC50: read-out: LC50 K-562
# IGROV-1 = assay: SRB colorimetric assay of cell growth and viability, IGROV-1; settings: 48 hours exposure
# LoVo = assay: SRB colorimetric assay of cell growth and viability, LoVo; settings: 48 hours exposure; for CC50: read-out: LC50 LOVO
# LoVo-Dox = assay: SRB colorimetric assay of cell growth and viability, LoVo-Dox; settings: 48 hours exposure; for CC50: read-out: LC50 LOVO-DOX
# In short: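 After 48 hours continuous exposure to samples spanning 10 to 10^−8 μg/mL, biomass was quantified by sulforhodamine B staining of TCA-fixed cells (OD 490 nm). Cells, 5×10^3 per well in RPMI 1640 10% FBS, had attached 18 hours first; GI, TGI and LC derived from triplicate wells.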
# LNCaP = assay: SRB colorimetric assay of cell growth and viability, LNCaP; settings: 48 hours exposure; for GI50: read-out: GI50 LN-caP; for CC50: read-out: LC50 LN-caP
# HT-29 = assay: SRB colorimetric assay of cell growth and viability, HT-29; settings: 48 hours exposure; for GI50: read-out: GI50 HT-29; for CC50: read-out: LC50 HT-29
# A-549 = assay: SRB colorimetric assay of cell growth and viability, A-549; settings: 48 hours exposure; for GI50: read-out: GI50 A-549; for CC50: read-out: LC50 A-549
# SK-OV-3 = assay: SRB colorimetric assay of cell growth and viability, SK-OV-3; settings: 48 hours exposure; for GI50: read-out: GI50 SKOV-3; for CC50: read-out: LC50 SKOV-3
# Description: The finality of this assay is to interrupt the growth of a “in vitro” tumor cell culture by means a continued exhibition of the cells to the sample to be testing.
# A colorimetric type of assay, using sulforhodamine B (SRB) reaction has been adapted for a quantitative measurement of cell growth and viability [following the technique described by Philip Skehan, et al. (1990), New colorimetric cytotoxicity assay for anticancer drug screening, J. Natl. Cancer Inst., 82:1107-1112].
# This form of the assay employs 96 well cell culture microplates of 9 mm diameter (Faircloth, 1988; Mosmann, 1983). Most of the cell lines are obtained from American Type Culture Collection (ATCC) derived from different human cancer types.
# Cells are maintained in RPMI 1640 10% FBS, supplemented with 0.1 g/l penicillin and 0.1 g/l streptomycin sulfate and then incubated at 37° C., 5% CO2 and 98% humidity. For the experiments, cells were harvested from subconfluent cultures using trypsin and resuspended in fresh medium before plating.
# Cells are seeded in 96 well microtiter plates, at 5×10^3 cells per well in aliquots of 195 μL medium, and they are allowed to attach to the plate surface by growing in drug free medium for 18 hours. Afterward, samples are added in aliquots of 5 μL in a ranging from 10 to 10^−8 μg/mL, dissolved in DMSO:EtOH:PBS (0.5:0.5:99). After 48 hours exposure, the antitumor effect are measured by the SRB methodology: cells are fixed by adding 50 μL of cold 50% (wt/vol) trichloroacetic acid (TCA) and incubating for 60 minutes at 4° C. Plates are washed with deionized water and dried. One hundred μL of SRB solution (0.4% wt/vol in 1% acetic acid) is added to each microtiter well and incubated for 10 minutes at room temperature. Unbound SRB is removed by washing with 1% acetic acid. Plates are air dried and bound stain is solubilized with Tris buffer. Optical densities are read on a automated spectrophotometric plate reader at a single wavelength of 490 nm.
# The values for mean+/− SD of data from triplicate wells are calculated. Some parameters for cellular responses can be calculated: GI=growth inhibition, TGI=total growth inhibition (cytostatic effect) and LC=cell killing (cytotoxic effect).
# DU-145 = assay: SRB colorimetric assay of cell growth and viability, DU-145; settings: 48 hours exposure
# PANC-1 = assay: SRB colorimetric assay of cell growth and viability, PANC-1; settings: 48 hours exposure; for CC50: read-out: LC50 PANC-1
# SK-MEL-28 = assay: SRB colorimetric assay of cell growth and viability, SK-MEL-28; settings: 48 hours exposure; for CC50: read-out: LC50 MEL-28
# IGROV-ET = assay: SRB colorimetric assay of cell growth and viability, IGROV-ET; settings: 48 hours exposure; for CC50: read-out: LC50 IGROV-ET
# SK-BR-3 = assay: SRB colorimetric assay of cell growth and viability, SK-BR-3; settings: 48 hours exposure
# HeLa = assay: SRB colorimetric assay of cell growth and viability, HeLa; settings: 48 hours exposure
# HeLa-APL = assay: SRB colorimetric assay of cell growth and viability, HeLa-APL; settings: 48 hours exposure
compound,measurement,setting,value
"C/C=C1\NC(=O)[C@H](Cc2ccccc2)NC(=O)[C@@H](C(C)C)NC(=O)[C@@H]([C@@H](C)CC)NC(=O)[C@H](NC(=O)[C@H](NC(=O)[C@H](CCCN)NC(=O)[C@H]2CCCN2C(=O)[C@H](NC(=O)[C@@H](NC(=O)[C@@H](NC(=O)[C@H](NC(=O)CCCCC(C)(F)F)C(C)C)[C@@H](C)O)C(C)C)C(C)C)[C@@H](C)CC)[C@@H](C)OC(=O)[C@H](C(C)C)NC1=O [Compound 28, [6,6-dFHep^14]-KF]",GI50,K-562,1.88 µM
same,TGI K-562,K-562,2.99E−04 Molar
same,CC50,K-562,4.75 µM
same,GI50,IGROV-1,0.334 µM
same,LC50 (concentration causing 50% net cell killing),IGROV-1,2.55 µM
same,TGI IGROV,IGROV-1,7.86E−07 Molar
same,GI50,LoVo,0.196 µM
same,TGI LOVO,LoVo,3.70E−07 Molar
same,CC50,LoVo,0.872 µM
same,GI50,LoVo-Dox,0.172 µM
same,TGI LOVO-DOX,LoVo-Dox,3.18E−07 Molar
same,TGI LN-caP,LNCaP,1.09E−06 Molar
same,GI50,LNCaP,0.363 µM
same,CC50,LNCaP,3.1 µM
same,TGI HT-29,HT-29,1.54E−06 Molar
same,GI50,HT-29,0.649 µM
same,CC50,HT-29,3.63 µM
same,TGI A-549,A-549,1.04E−06 Molar
same,GI50,A-549,0.328 µM
same,CC50,A-549,4.25 µM
same,TGI SKOV-3,SK-OV-3,3.36E−07 Molar
same,GI50,SK-OV-3,0.145 µM
same,CC50,SK-OV-3,1.01 µM
same,GI50,DU-145,0.215 µM
same,LC50 (concentration causing 50% net cell kill),DU-145,2.09 µM
same,TGI DU-145,DU-145,5.59E−07 Molar
same,GI50,PANC-1,1.48 µM
same,TGI PANC-1,PANC-1,2.52E−06 Molar
same,CC50,PANC-1,4.3 µM
same,GI50,SK-MEL-28,1.47 µM
same,TGI MEL-28,SK-MEL-28,2.55E−06 Molar
same,CC50,SK-MEL-28,4.41 µM
same,GI50,IGROV-ET,0.228 µM
same,TGI IGROV-ET,IGROV-ET,3.59E−07 Molar
same,CC50,IGROV-ET,0.568 µM
"C/C=C1\NC(=O)[C@H](Cc2ccccc2)NC(=O)[C@@H](C(C)C)NC(=O)[C@@H]([C@@H](C)CC)NC(=O)[C@H](NC(=O)[C@H](NC(=O)[C@H](CCCN)NC(=O)[C@H]2CCCN2C(=O)[C@H](NC(=O)CCCC(C)C)C(C)C)[C@@H](C)CC)[C@@H](C)OC(=O)[C@H](C(C)C)NC1=O [Compound 31, [noVal^11, noThr^12, noD-Val^13]-KF] ({Hexanoyl(5-Me)}-[dV][dP][Orn][d(aIle)][d(aThr)][d(aIle)][dV]F[Dhb]V; ester 5-C)",GI50,K-562,2.21 µM
same,TGI K-562,K-562,4.26E−06 Molar
same,CC50,K-562,8.18 µM
same,GI50,IGROV-1,2.69 µM
same,LC50 (concentration causing 50% net cell killing),IGROV-1,6.25 µM
same,TGI IGROV,IGROV-1,4.10E−06 Molar
same,GI50,LoVo,8.49 µM
same,TGI LOVO,LoVo,8.49E−06 Molar
same,CC50,LoVo,8.49 µM
same,GI50,LoVo-Dox,2.38 µM
same,TGI LOVO-DOX,LoVo-Dox,4.00E−06 Molar
same,CC50,LoVo-Dox,≥ 6.75 µM
same,TGI LN-caP,LNCaP,3.79E−06 Molar
same,GI50,LNCaP,1.94 µM
same,CC50,LNCaP,7.39 µM
same,TGI HT-29,HT-29,8.49E−06 Molar
same,GI50,HT-29,8.49 µM
same,CC50,HT-29,8.49 µM
same,TGI A-549,A-549,8.49E−06 Molar
same,GI50,A-549,5.91 µM
same,CC50,A-549,8.49 µM
same,TGI SKOV-3,SK-OV-3,5.03E−06 Molar
same,GI50,SK-OV-3,2.21 µM
same,CC50,SK-OV-3,8.49 µM
same,GI50,DU-145,3.3 µM
same,LC50 (concentration causing 50% net cell kill),DU-145,8.49 µM
same,TGI DU-145,DU-145,6.37E−06 Molar
same,GI50,PANC-1,2.12 µM
same,TGI PANC-1,PANC-1,3.63E−06 Molar
same,CC50,PANC-1,6.23 µM
same,GI50,SK-MEL-28,4.21 µM
same,TGI MEL-28,SK-MEL-28,8.49E−06 Molar
same,CC50,SK-MEL-28,8.49 µM
same,GI50,IGROV-ET,2.69 µM
same,TGI IGROV-ET,IGROV-ET,4.07E−06 Molar
same,CC50,IGROV-ET,6.18 µM
"C/C=C1\NC(=O)[C@H](Cc2ccccc2)NC(=O)[C@@H](C(C)C)NC(=O)[C@@H](C(C)C)NC(=O)[C@H](NC(=O)[C@H](NC(=O)[C@H](CCCN)NC(=O)[C@H]2CCCN2C(=O)[C@H](NC(=O)[C@@H](NC(=O)[C@@H](NC(=O)[C@H](NC(=O)CCCC(C)C)C(C)C)[C@@H](C)O)C(C)C)C(C)C)C(C)C)[C@@H](C)OC(=O)[C@H](C(C)C)NC1=O [Compound 12, [D-Val^5, D-Val^7]-KF] ({Hexanoyl(5-Me)}-[dV]TV[dV][dP][Orn][dV][d(aThr)][dV][dV]F[Dhb]V; ester 8-C)",GI50,K-562,3.19 µM
same,TGI K-562,K-562,5.46E−06 Molar
same,CC50,K-562,6.9 µM
same,GI50,IGROV-1,1.85 µM
same,LC50 (concentration causing 50% net cell killing),IGROV-1,4.93 µM
same,TGI IGROV,IGROV-1,3.01E−06 Molar
same,GI50,LoVo,1.26 µM
same,TGI LOVO,LoVo,2.28E−06 Molar
same,CC50,LoVo,4.13 µM
same,GI50,SK-BR-3,1.74 µM
same,LC50,SK-BR-3,5.38 µM
same,TGI SK-BR-3,SK-BR-3,3.06E−06 Molar
same,GI50,LoVo-Dox,0.952 µM
same,TGI LOVO-DOX,LoVo-Dox,1.97E−06 Molar
same,CC50,LoVo-Dox,4.08 µM
same,TGI LN-caP,LNCaP,3.79E−08 Molar
same,GI50,LNCaP,2.8 µM
same,CC50,LNCaP,5.14 µM
same,TGI HT-29,HT-29,2.51E−06 Molar
same,GI50,HT-29,1.29 µM
same,CC50,HT-29,4.88 µM
same,TGI A-549,A-549,6.68E−06 Molar
same,GI50,A-549,2.17 µM
same,CC50,A-549,6.9 µM
same,GI50,DU-145,1.61 µM
same,LC50 (concentration causing 50% net cell kill),DU-145,4.92 µM
same,TGI DU-145,DU-145,2.82E−06 Molar
same,GI50,HeLa,1.75 µM
same,TGI HELA,HeLa,2.98E−06 Molar
same,CC50,HeLa; read-out: LC50 HELA,5.07 µM
same,GI50,HeLa-APL,3.02 µM
same,TGI HELA-APL,HeLa-APL,6.01E−06 Molar
same,CC50,HeLa-APL; read-out: LC50 HELA-APL,6.9 µM
same,GI50,PANC-1,4.67 µM
same,TGI PANC-1,PANC-1,6.90E−06 Molar
same,CC50,PANC-1,6.9 µM
same,GI50,SK-MEL-28,1.68 µM
same,TGI MEL-28,SK-MEL-28,3.12E−06 Molar
same,CC50,SK-MEL-28,5.78 µM
same,GI50,IGROV-ET,1.79 µM
same,TGI IGROV-ET,IGROV-ET,2.97E−06 Molar
same,CC50,IGROV-ET,4.93 µM
